pIC50: −log10 of the molar value. Where a name gives a salt, the structure may show the parent alone.
What was measured:
Bovine LOX = biological target: T1, Bovine LOX (Bos taurus, UniProt P33072); assay: LOX amine oxidase inhibition, peroxidase-coupled Amplex Red assay; assay type: biochemical; settings: 30 min preincubation at 37° C., putrescine substrate
T1 sequence (P33072 170-418): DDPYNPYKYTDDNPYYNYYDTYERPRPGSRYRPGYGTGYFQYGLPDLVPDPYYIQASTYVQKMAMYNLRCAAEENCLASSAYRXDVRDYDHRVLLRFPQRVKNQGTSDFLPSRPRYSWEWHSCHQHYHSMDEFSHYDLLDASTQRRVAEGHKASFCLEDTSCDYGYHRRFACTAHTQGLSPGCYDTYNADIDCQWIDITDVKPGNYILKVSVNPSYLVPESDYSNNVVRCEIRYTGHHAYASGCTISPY
From the text: (§1) Method to Determine the Ability of Compounds of the Invention to Inhibit LOX and LOXL1-4 from Different Sources
Lysyl oxidase (LOX) is an extracellular copper dependent enzyme which oxidizes peptidyl lysine and hydroxylysine residues in collagen and lysine residues in elastin to produce peptidyl alpha-aminoadipic-delta-semialdehydes. […] There are five LOX family members; these are LOX, LOXL1, LOXL2, LOXL3 and LOXL4. LOX and LOXL family members can be acquired as recombinant active proteins from commercial sources, or extracted from animal tissues like bovine aorta, tendons, pig skin; or prepared from cell cultures. The inhibitory effects of the compounds of the present invention were tested against the given LOX-LOXL preparation using a high-throughput coupled colorimetric method (Holt A. and Palcic M., A peroxidase-coupled continuous absorbance plate-reader assay for flavin monoamine oxidases, copper-containing amine oxidases and related enzymes. Nat. Protoc. 2006; 1: 2498-2505). The assay was developed using either 384 or 96 well format. Briefly, in a standard 384 well plate assay 25 μL of a dilution of any of the isoenzymes and orthologues in 1.2 M urea, 50 mM sodium borate buffer (pH 8.2) were added into each well in the presence of 1 μM mofegiline and 0.5 mM pargyline (to inhibit SSAO and MAO-B and MAO-A, respectively). […] Twenty five μL of a reaction mixture containing twice the KM concentration of putrescine (Sigma Aldrich, e.g. 20 mM for LOX, or 10 mM for LOXL2 and LOXL3), 120 μM Amplex Red (Sigma Aldrich) and 1.5 U/mL horseradish peroxidase (Sigma Aldrich) prepared in 1.2 M urea, 50 mM sodium borate buffer (pH 8.2) were then added to the corresponding wells. The above volumes were doubled in the case of 96 wells plate. The fluorescence (RFU) was read every 2.5 min for 30 min at a range of temperatures from 37° to 45° C., excitation 565 nm and emission 590 (Optima; BMG labtech). The slope of the kinetics for each well was calculated using MARS data analysis software (BMG labtech) and this value was used to deduce the IC50 value (Dotmatics).

Human LOXL2 = biological target: T2, Human LOXL2 (Homo sapiens, UniProt Q9Y4K0); assay: LOXL2 amine oxidase inhibition, peroxidase-coupled Amplex Red assay; assay type: biochemical; settings: 30 min preincubation at 37° C., putrescine substrate
T2 sequence (Q9Y4K0 26-774): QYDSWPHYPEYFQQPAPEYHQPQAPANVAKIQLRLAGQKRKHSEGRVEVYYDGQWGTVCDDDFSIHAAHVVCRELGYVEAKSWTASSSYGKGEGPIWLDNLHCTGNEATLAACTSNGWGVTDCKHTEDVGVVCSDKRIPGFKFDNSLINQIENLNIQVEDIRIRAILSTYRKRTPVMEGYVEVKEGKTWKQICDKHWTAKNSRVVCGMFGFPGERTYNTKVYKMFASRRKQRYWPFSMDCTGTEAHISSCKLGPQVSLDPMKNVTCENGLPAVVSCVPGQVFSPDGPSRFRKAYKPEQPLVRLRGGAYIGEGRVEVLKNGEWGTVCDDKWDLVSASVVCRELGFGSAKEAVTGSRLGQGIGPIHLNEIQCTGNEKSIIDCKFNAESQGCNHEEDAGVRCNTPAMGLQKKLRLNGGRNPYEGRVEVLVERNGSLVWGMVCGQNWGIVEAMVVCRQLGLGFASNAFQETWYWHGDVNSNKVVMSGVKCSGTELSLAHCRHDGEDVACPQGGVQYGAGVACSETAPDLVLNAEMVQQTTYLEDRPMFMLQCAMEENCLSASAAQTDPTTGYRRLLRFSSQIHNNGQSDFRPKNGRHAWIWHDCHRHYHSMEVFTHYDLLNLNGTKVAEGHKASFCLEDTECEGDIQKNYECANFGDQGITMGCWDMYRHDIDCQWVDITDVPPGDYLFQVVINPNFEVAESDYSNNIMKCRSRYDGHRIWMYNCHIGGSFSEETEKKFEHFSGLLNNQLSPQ
From the text: as §1
Lysyl oxidase (LOX) is an extracellular copper dependent enzyme which oxidizes peptidyl lysine and hydroxylysine residues in collagen and lysine residues in elastin to produce peptidyl alpha-aminoadipic-delta-semialdehydes. […] There are five LOX family members; these are LOX, LOXL1, LOXL2, LOXL3 and LOXL4. LOX and LOXL family members can be acquired as recombinant active proteins from commercial sources, or extracted from animal tissues like bovine aorta, tendons, pig skin; or prepared from cell cultures. The inhibitory effects of the compounds of the present invention were tested against the given LOX-LOXL preparation using a high-throughput coupled colorimetric method (Holt A. and Palcic M., A peroxidase-coupled continuous absorbance plate-reader assay for flavin monoamine oxidases, copper-containing amine oxidases and related enzymes. Nat. Protoc. 2006; 1: 2498-2505). The assay was developed using either 384 or 96 well format. Briefly, in a standard 384 well plate assay 25 μL of a dilution of any of the isoenzymes and orthologues in 1.2 M urea, 50 mM sodium borate buffer (pH 8.2) were added into each well in the presence of 1 μM mofegiline and 0.5 mM pargyline (to inhibit SSAO and MAO-B and MAO-A, respectively). Test compounds were dissolved in DMSO and tested in a Concentration Response Curve (CRC) with 11 data points, typically in the micromolar or nanomolar range after incubation with the enzyme for 30 min at 37° C. Twenty five μL of a reaction mixture containing twice the KM concentration of putrescine (Sigma Aldrich, e.g. 20 mM for LOX, or 10 mM for LOXL2 and LOXL3), 120 μM Amplex Red (Sigma Aldrich) and 1.5 U/mL horseradish peroxidase (Sigma Aldrich) prepared in 1.2 M urea, 50 mM sodium borate buffer (pH 8.2) were then added to the corresponding wells. The above volumes were doubled in the case of 96 wells plate. The fluorescence (RFU) was read every 2.5 min for 30 min at a range of temperatures from 37° to 45° C., excitation 565 nm and emission 590 (Optima; BMG labtech). The slope of the kinetics for each well was calculated using MARS data analysis software (BMG labtech) and this value was used to deduce the IC50 value (Dotmatics).

| Structure (SMILES) | pIC50 (Bovine LOX) | pIC50 (Human LOXL2) |
| --- | --- | --- |
| Cc1nn(C/C(F)=C/CN)c(C(C)O)c1Cc1ccc(S(=O)(=O)N(C)C)c(Cl)c1 (single isomer, unassigned) [Compound 52, (Z)-4-((1-(4-amino-2-fluorobut-2-en-1-yl)-5-(1-hydroxyethyl)-3-methyl-1H-pyrazol-4-yl)methyl)-2-chloro-N,N-dimethylbenzenesulfonamide hydrochloride] | < 5.00 | > 6.00 |
| Cc1nn(C/C(F)=C/CN)c(C(C)O)c1Cc1ccc(S(=O)(=O)N(C)C)c(Cl)c1 (single isomer, unassigned) [Compound 53, (Z)-4-((1-(4-amino-2-fluorobut-2-en-1-yl)-5-(1-hydroxyethyl)-3-methyl-1H-pyrazol-4-yl)methyl)-2-chloro-N,N-dimethylbenzenesulfonamide hydrochloride] | < 5.00 | > 6.00 |
| N#CCCN [BAPN, β-aminopropionitrile, reference compound] | > 6.00 | > 6.00 |
| CN(C)S(=O)(=O)c1ccc(-c2cnn(C/C(F)=C/CN)c2)cc1 [Compound 1, (Z)-4-(1-(4-amino-2-fluorobut-2-en-1-yl)-1H-pyrazol-4-yl)-N,N-dimethyl benzenesulfonamide hydrochloride] | > 5.00 | > 6.00 |
| Cc1nn(C/C(F)=C/CN)c(C)c1Cc1ccc(S(=O)(=O)N(C)C)cc1 [Compound 2, (Z)-4-((1-(4-amino-2-fluorobut-2-en-1-yl)-3,5-dimethyl-1H-pyrazol-4-yl)methyl)-N,N-dimethylbenzenesulfonamide hydrochloride] | > 5.00 | > 6.00 |
| Cc1nn(C/C(F)=C/CN)c(C)c1Cc1ccc(S(=O)(=O)N(C)C)cc1Cl [Compound 3, (Z)-4-((1-(4-amino-2-fluorobut-2-en-1-yl)-3,5-dimethyl-1H-pyrazol-4-yl)methyl)-3-chloro-N,N-dimethylbenzenesulfonamide hydrochloride] | > 5.00 | > 6.00 |
| Cc1nn(C/C(F)=C/CN)c(C)c1Cc1ccc(S(C)(=O)=O)cc1 [Compound 4, (Z)-4-(3,5-dimethyl-4-(4-(methylsulfonyl)benzyl)-1H-pyrazol-1-yl)-3-fluorobut-2-en-1-amine hydrochloride] | > 5.00 | > 6.00 |
| Cc1nn(C/C(F)=C/CN)c(C)c1Cc1cccc(S(=O)(=O)N(C)C)c1 [Compound 5, (Z)-3-((1-(4-amino-2-fluorobut-2-en-1-yl)-3,5-dimethyl-1H-pyrazol-4-yl)methyl)-N,N-dimethyl benzenesulfonamide hydrochloride] | < 5.00 | > 6.00 |
| Cc1nn(C/C(F)=C/CN)c(C)c1Cc1ccc(S(=O)(=O)N2CCOCC2)cc1 [Compound 6, (Z)-4-(3,5-dimethyl-4-(4-(morpholinosulfonyl)benzyl)-1H-pyrazol-1-yl)-3-fluorobut-2-en-1-amine hydrochloride] | > 5.00 | > 6.00 |
| Cc1nn(C/C(F)=C/CN)c(C)c1Cc1ccc(S(=O)(=O)N2CCCC2)cc1 [Compound 7, (Z)-4-(3,5-dimethyl-4-(4-(pyrrolidin-1-ylsulfonyl)benzyl)-1H-pyrazol-1-yl)-3-fluorobut-2-en-1-amine hydrochloride] | > 5.00 | > 6.00 |
| Cc1nn(C/C(F)=C/CN)c(C)c1Cc1ccc(S(=O)(=O)N(C)C(C)C)cc1 [Compound 8, (Z)-4-((1-(4-amino-2-fluorobut-2-en-1-yl)-3,5-dimethyl-1H-pyrazol-4-yl)methyl)-N-isopropyl-N-methylbenzenesulfonamide hydrochloride] | > 5.00 | > 6.00 |
| Cc1nn(C/C(F)=C/CN)c(C)c1Cc1ccc(S(=O)(=O)N(C)C)c2ccccc12 [Compound 9, (Z)-4-((1-(4-amino-2-fluorobut-2-en-1-yl)-3,5-dimethyl-1H-pyrazol-4-yl)methyl)-N,N-dimethyl naphthalene-1-sulfonamide hydrochloride] | > 5.00 | > 6.00 |
| Cc1nn(Cc2ccc(S(=O)(=O)N(C)C)cc2)c(C)c1C/C(F)=C/CN [Compound 10, (Z)-4-((4-(4-amino-2-fluorobut-2-en-1-yl)-3,5-dimethyl-1H-pyrazol-1-yl)methyl)-N,N-dimethylbenzenesulfonamide hydrochloride] | > 5.00 | > 6.00 |
| Cc1nn(C/C(F)=C/CN)c(C)c1Cc1ccc(S(=O)(=O)NC(C)C)cc1 [Compound 11, (Z)-4-((1-(4-amino-2-fluorobut-2-en-1-yl)-3,5-dimethyl-1H-pyrazol-4-yl)methyl)-N-isopropyl benzenesulfonamide hydrochloride] | > 5.00 | > 6.00 |
| Cc1nn(C/C(F)=C/CN)c(C)c1Cc1ccc(S(C)(=O)=O)cc1Cl [Compound 12, (Z)-4-(4-(2-chloro-4-(methylsulfonyl)benzyl)-3,5-dimethyl-1H-pyrazol-1-yl)-3-fluorobut-2-en-1-amine hydrochloride] | > 5.00 | > 6.00 |
| CCc1nn(C/C(F)=C/CN)c(CC)c1Cc1ccc(S(=O)(=O)N(C)C)cc1 [Compound 13, (Z)-4-((1-(4-amino-2-fluorobut-2-en-1-yl)-3,5-diethyl-1H-pyrazol-4-yl)methyl)-N,N-dimethyl benzenesulfonamide hydrochloride] | > 5.00 | > 6.00 |
| Cc1nn(C/C(F)=C/CN)c(C)c1Cc1ccc(C(=O)N(C)C)cc1 [Compound 14, (Z)-4-((1-(4-amino-2-fluorobut-2-en-1-yl)-3,5-dimethyl-1H-pyrazol-4-yl)methyl)-N,N-dimethylbenzamide hydrochloride] | > 5.00 | > 5.00 |
